Experimental data from patent US10865208B2, “ATG7 inhibitors and the uses thereof” (Millennium Pharmaceuticals, Inc., priority 2016, dated 2020).

Target: recombinant human His-ATG7 enzyme (Homo sapiens (Human), UniProt O95352)
Experiment: ATG7 Enzyme Assay (HTRF/FRET, ATG3-GST and Flag-Gabarap)
Format: biochemical
Conditions: for inhibition at 0.123 µM / inhibition at 0.111 µM: read-out: Percent Inhibition; for inhibition at 0.111 µM: Concentration 0.111 μM
Method: Example 97: ATG7 Enzyme Assay
The total volume of the ATG7 enzymatic assay is 50 μL and contains 50 mM HEPES Hemisodium (pH 7.5), 0.05% BSA, 0.01% Tween-20, 25 mM NaCl, 5 mM MgCl2, 10 μM ATP, 250 μM GSH, 5 nM ATG3-GST, 5 nM Flag-Gabarap, 100 μM TCEP and 0.15 nM recombinant human His-ATG7 enzyme. The enzymatic reaction mixture, with and without inhibitor, was incubated at 24° C. for 105 min in a 384-well plate before termination with […] of Stop/Detection buffer (0.1M HEPES Hemisodium pH 7.5, 0.05% Tween20, 20 mM EDTA, 410 mM KF, 0.53 nM Europium-Cryptate labeled monoclonal anti-Flag M2 Antibody (CisBio International) and 8.125 μg/ml PHYCOLINK goat anti-GST allophycocyanin (XL-APC) antibody (Prozyme)). After incubation for 2 hours at 24° C., quantification of FRET is performed on the Pherostar™ (BMG Labtech). Percentage inhibition values at a single concentration or enzyme inhibition (IC50) values are determined from those curves. One skilled in the art will appreciate that the values generated either as percentage inhibition at a single concentration or IC50 values are subject to experimental variation.

recombinant human His-ATG7 enzyme, sequence (O95352 whole entry): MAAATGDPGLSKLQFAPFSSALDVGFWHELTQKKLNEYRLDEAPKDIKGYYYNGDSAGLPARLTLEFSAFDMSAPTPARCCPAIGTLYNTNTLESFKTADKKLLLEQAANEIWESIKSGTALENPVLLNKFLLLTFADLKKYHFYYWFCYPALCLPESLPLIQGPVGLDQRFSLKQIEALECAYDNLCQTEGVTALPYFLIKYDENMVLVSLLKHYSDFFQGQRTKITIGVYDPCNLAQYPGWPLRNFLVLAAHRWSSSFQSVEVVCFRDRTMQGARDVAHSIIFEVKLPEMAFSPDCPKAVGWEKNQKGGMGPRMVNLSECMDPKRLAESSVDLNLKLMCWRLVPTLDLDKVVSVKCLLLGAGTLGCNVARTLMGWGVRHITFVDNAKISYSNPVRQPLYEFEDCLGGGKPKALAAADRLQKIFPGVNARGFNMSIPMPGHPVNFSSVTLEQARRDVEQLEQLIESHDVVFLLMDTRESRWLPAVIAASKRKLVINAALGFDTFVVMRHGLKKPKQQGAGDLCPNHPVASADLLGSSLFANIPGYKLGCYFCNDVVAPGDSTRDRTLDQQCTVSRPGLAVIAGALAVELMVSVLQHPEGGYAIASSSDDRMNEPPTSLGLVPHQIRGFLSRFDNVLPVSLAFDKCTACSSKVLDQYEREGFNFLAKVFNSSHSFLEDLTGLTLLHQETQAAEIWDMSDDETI

IC50 | inhibition at 0.123 µM (Concentration 0.123 μM) | inhibition at 0.111 µM | Percent Inhibition (Concentration 0.123 μM) | SMILES
> 500 nM | 5% | – | – | COC(C)c1nn([C@@H]2O[C@H](COS(N)(=O)=O)[C@@H](O)[C@H]2O)c2ncnc(N)c12 (mixture of isomers) [Compound I-22, [(2R,3S,4R,5R)-5-{4-amino-3-[(1R)-1-methoxyethyl]-1H-pyrazolo[3,4-d]pyrimidin-1-yl}-3,4-dihydroxytetrahydrofuran-2-yl]methyl Sulfamate and [(2R,3S,4R,5R)-5-{4-amino-3-[(1S)-1-methoxyethyl]-1H-pyrazolo[3,4-d]pyrimidin-1-yl}-3,4-dihydroxytetrahydrofuran-2-yl]methyl Sulfamate]
100 to 500 nM | 48% | – | – | Nc1ncnc2c1c(SC1CCCCC1O)nn2[C@@H]1O[C@H](COS(N)(=O)=O)[C@@H](O)[C@H]1O (mixture of isomers) [Compound I-47, [(2R,3S,4R,5R)-5-(4-amino-3-{[(1R,2R)-2-hydroxycyclohexyl]sulfanyl}-1H-pyrazolo[3,4-d]pyrimidin-1-yl)-3,4-dihydroxytetrahydrofuran-2-yl]methyl Sulfamate and [(2R,3S,4R,5R)-5-(4-amino-3-{[(1S,2S)-2-hydroxycyclohexyl]sulfanyl}-1H-pyrazolo[3,4-d]pyrimidin-1-yl)-3,4-dihydroxytetrahydrofuran-2-yl]methyl Sulfamate]
20 to 50 nM | 75% | – | – | Nc1ncnc2c1c(SC1CCCC1O)nn2[C@@H]1O[C@H](COS(N)(=O)=O)[C@@H](O)[C@H]1O (mixture of isomers) [Compound I-54, [(2R,3S,4R,5R)-5-(4-amino-3-{[(1R,2R)-2-hydroxycyclopentyl]sulfanyl}-1H-pyrazolo[3,4-d]pyrimidin-1-yl)-3,4-dihydroxytetrahydrofuran-2-yl]methyl Sulfamate and [(2R,3S,4R,5R)-5-(4-amino-3-{[(1S,2S)-2-hydroxycyclopentyl]sulfanyl}-1H-pyrazolo[3,4-d]pyrimidin-1-yl)-3,4-dihydroxytetrahydrofuran-2-yl]methyl Sulfamate]
50 to 100 nM | 70% | – | – | CC(Sc1nn([C@@H]2O[C@H](COS(N)(=O)=O)[C@@H](O)[C@H]2O)c2ncnc(N)c12)c1ccccc1 (mixture of isomers) [Compound I-70, [(2R,3S,4R,5R)-5-(4-amino-3-{[(1R)-1-phenylethyl]sulfanyl}-1H-pyrazolo[3,4-d]pyrimidin-1-yl)-3,4-dihydroxytetrahydrofuran-2-yl]methyl sulfamate and [(2R,3S,4R,5R)-5-(4-amino-3-{[(1S)-1-phenylethyl]sulfanyl}-1H-pyrazolo[3,4-d]pyrimidin-1-yl)-3,4-dihydroxytetrahydrofuran-2-yl]methyl sulfamate]
> 500 nM | – | 13% | – | CC(Sc1nn([C@@H]2O[C@H](COS(N)(=O)=O)[C@@H](O)[C@@H]2F)c2ncnc(N)c12)C(F)(F)F (mixture of isomers) [Compound I-101, [(2R,3R,4S,5R)-5-(4-amino-3-{[(2R)-1,1,1-trifluoropropan-2-yl]sulfanyl}-1H-pyrazolo[3,4-d]pyrimidin-1-yl)-4-fluoro-3-hydroxytetrahydrofuran-2-yl]methyl Sulfamate and [(2R,3R,4S,5R)-5-(4-amino-3-{[(2S)-1,1,1-trifluoropropan-2-yl]sulfanyl}-1H-pyrazolo[3,4-d]pyrimidin-1-yl)-4-fluoro-3-hydroxytetrahydrofuran-2-yl]methyl Sulfamate]
20 to 50 nM | – | 78% | – | Nc1ncnc2c1c(SC1CCOC1)nn2[C@@H]1O[C@H](COS(N)(=O)=O)[C@@H](O)[C@@H]1F (mixture of isomers) [Compound I-123, [(2R,3R,4S,5R)-5-{4-amino-3-[(3R)-tetrahydrofuran-3-ylsulfanyl]-1H-pyrazolo[3,4-d]pyrimidin-1-yl}-4-fluoro-3-hydroxytetrahydrofuran-2-yl]methyl sulfamate and [(2R,3R,4S,5R)-5-{4-amino-3-[(3S)-tetrahydrofuran-3-ylsulfanyl]-1H-pyrazolo[3,4-d]pyrimidin-1-yl}-4-fluoro-3-hydroxytetrahydrofuran-2-yl]methyl sulfamate]
20 to 50 nM | – | 76% | – | Nc1ncnc2c1c(SCC1CC1(F)F)nn2[C@@H]1O[C@H](COS(N)(=O)=O)[C@@H](O)[C@@H]1F (mixture of isomers) [Compound I-131, {(2R,3R,4S,5R)-5-[4-amino-3-({[(1R)-2,2-difluorocyclopropyl]methyl}sulfanyl)-1H-pyrazolo[3,4-d]pyrimidin-1-yl]-4-fluoro-3-hydroxytetrahydrofuran-2-yl}methyl sulfamate and {(2R,3R,4S,5R)-5-[4-amino-3-({[(1S)-2,2-difluorocyclopropyl]methyl}sulfanyl)-1H-pyrazolo[3,4-d]pyrimidin-1-yl]-4-fluoro-3-hydroxytetrahydrofuran-2-yl}methyl sulfamate]
20 to 50 nM | – | 69% | – | CCC(C)Sc1nn([C@@H]2O[C@H](COS(N)(=O)=O)[C@@H](O)[C@@H]2F)c2ncnc(N)c12 (mixture of isomers) [Compound I-136, [(2R,3R,4S,5R)-5-{4-amino-3-[(2R)-butan-2-ylsulfanyl]-1H-pyrazolo[3,4-d]pyrimidin-1-yl}-4-fluoro-3-hydroxytetrahydrofuran-2-yl]methyl sulfamate and [(2R,3R,4S,5R)-5-{4-amino-3-[(2S)-butan-2-ylsulfanyl]-1H-pyrazolo[3,4-d]pyrimidin-1-yl}-4-fluoro-3-hydroxytetrahydrofuran-2-yl]methyl sulfamate]
20 to 50 nM | – | 74% | – | CC(CO)Sc1nn([C@@H]2O[C@H](COS(N)(=O)=O)[C@@H](O)[C@@H]2F)c2ncnc(N)c12 (mixture of isomers) [Compound I-144, [(2R,3R,4S,5R)-5-(4-amino-3-{[(2R)-1-hydroxypropan-2-yl]sulfanyl}-1H-pyrazolo[3,4-d]pyrimidin-1-yl)-4-fluoro-3-hydroxytetrahydrofuran-2-yl]methyl sulfamate and [(2R,3R,4S,5R)-5-(4-amino-3-{[(2S)-1-hydroxypropan-2-yl]sulfanyl}-1H-pyrazolo[3,4-d]pyrimidin-1-yl)-4-fluoro-3-hydroxytetrahydrofuran-2-yl]methyl sulfamate]
20 to 50 nM | – | 82% | – | CC(C#N)Sc1nn([C@@H]2O[C@H](COS(N)(=O)=O)[C@@H](O)[C@@H]2F)c2ncnc(N)c12 (mixture of isomers) [Compound I-149, [(2R,3R,4S,5R)-5-(4-amino-3-{[(1R)-1-cyanoethyl]sulfanyl}-1H-pyrazolo[3,4-d]pyrimidin-1-yl)-4-fluoro-3-hydroxytetrahydrofuran-2-yl]methyl sulfamate and [(2R,3R,4S,5R)-5-(4-amino-3-{[(1S)-1-cyanoethyl]sulfanyl}-1H-pyrazolo[3,4-d]pyrimidin-1-yl)-4-fluoro-3-hydroxytetrahydrofuran-2-yl]methyl sulfamate]
20 to 50 nM | – | 71% | – | CC(Sc1nn([C@@H]2O[C@H](COS(N)(=O)=O)[C@@H](O)[C@@H]2F)c2ncnc(N)c12)C1CC1 (mixture of isomers) [Compound I-157, [(2R,3R,4S,5R)-5-(4-amino-3-{[(1R)-1-cyclopropylethyl]sulfanyl}-1H-pyrazolo[3,4-d]pyrimidin-1-yl)-4-fluoro-3-hydroxytetrahydrofuran-2-yl]methyl sulfamate and [(2R,3R,4S,5R)-5-(4-amino-3-{[(1S)-1-cyclopropylethyl]sulfanyl}-1H-pyrazolo[3,4-d]pyrimidin-1-yl)-4-fluoro-3-hydroxytetrahydrofuran-2-yl]methyl sulfamate]
> 500 nM | – | – | 19% | CC(O)c1nn([C@@H]2O[C@H](COS(N)(=O)=O)[C@@H](O)[C@H]2O)c2ncnc(N)c12 (single isomer, unassigned) [Compound I-23a, [(2R,3S,4R,5R)-5-{4-amino-3-[(1R)-1-hydroxyethyl]-1H-pyrazolo[3,4-d]pyrimidin-1-yl}-3,4-dihydroxytetrahydrofuran-2-yl]methyl sulfamate or [(2R,3S,4R,5R)-5-{4-amino-3-[(1S)-1-hydroxyethyl]-1H-pyrazolo[3,4-d]pyrimidin-1-yl}-3,4-dihydroxytetrahydrofuran-2-yl]methyl Sulfamate]
100 to 500 nM | 22% | – | – | CC(O)c1nn([C@@H]2O[C@H](COS(N)(=O)=O)[C@@H](O)[C@H]2O)c2ncnc(N)c12 (single isomer, unassigned) [Compound I-23b, [(2R,3S,4R,5R)-5-{4-amino-3-[(1R)-1-hydroxyethyl]-1H-pyrazolo[3,4-d]pyrimidin-1-yl}-3,4-dihydroxytetrahydrofuran-2-yl]methyl Sulfamate or [(2R,3S,4R,5R)-5-{4-amino-3-[(1S)-1-hydroxyethyl]-1H-pyrazolo[3,4-d]pyrimidin-1-yl}-3,4-dihydroxytetrahydrofuran-2-yl]methyl Sulfamate]
